In patent publication US9028845B2, “Chimeric immunomodulatory compounds and methods of using the same-IV” (Dynavax Technologies Corporation, priority 2001, dated 2015):

Tested on: mouse lung
Test: Induction of immune-associated genes in the mouse lung after intranasal treatment (quantitative PCR)
Format: in vivo, BALB/c mice
Conditions: 20 ug intranasal, 6 hrs; vs P-7 treated mice
Procedure: The genes evaluated included genes encoding cytokines, chemokines, cell surface molecules, transcription factors, metalloproteases, and other molecules. The study was performed at Northview Pacific Laboratories (Hercules, Calif.) with 6-8 week old female BALB/c mice from Jackson Labs (Bar Harbor, Me.). […] Therefore, at 6 hrs the lungs were harvested and snap-frozen in liquid nitrogen and stored at −80° C. for later use. Total RNA was isolated using RNeasy mini kits (Qiagen Inc., Valencia, Calif.). The RNA samples were DNAse-treated (Roche Diagnostics, Mannheim, Germany) and converted into cDNA using Superscript II Rnase H-Reverse Transcriptase (Invitrogen, Rockville Md.) as described in Scheerens et al., 2001, Eur. J. of Immunology 31:1465-74. The cDNA samples were pooled per group and in each pooled sample the expression of mRNA of 75 genes was measured using real-time quantitative PCR (ABI Prism 5700, Perkin Elmer Applied Biosystems) and syber green (Qiagen Inc.). In addition to the genes of interest, in each sample the mRNA expression of a housekeeping gene was measured (HPRT or ubiquitin). In order to correct for the amount of RNA in each sample, all data were calculated relative to the expression of the housekeeping gene.

5′-TGACTGTGAACGTTCGAGATGA-3′ (SEQ ID NO: 2) [Compound P-6, reference compound]
mRNA expression of immune-associated genes in the lung, in words: potently induce the expression of a variety of genes
